The results in this text go back to patent US10772807B2, “Lipid microcapsules preferably comprising a retinoid, and composition containing same, method for the production thereof, and use of same in dermatology” (GALDERMA RESEARCH & DEVELOPMENT, priority 2013, dated 2020).

Series [1] in a line: Maximum solubility of Trifarotene in various oily phases. The format is physicochemical.
A short description of series [2]: Chemical stability of Trifarotene in oily phases (HPLC-UV). Type of series: physicochemical. As for the experimental part:
The stability of the active agent was evaluated by liquid chromatography coupled to a UV detector (HPLC-UV).

[3] abbreviates: in Caprylic/capric acid triglycerides (Miglyol ® 812N).
[4] abbreviates: in Diisopropyl adipate (Schercemol Dia Ester).
Where [5] appears, read: in Macrogol oleate (Labrafil ® M1944CS).
Setting [6] is: in Octyldodecanol (Eutanol ® G).
Where [7] appears, read: in PPG-15 stearyl ether (Arlamol PS11E-LQ).
The mark [8] stands for this setting: in Propylene glycol dicaprylate/dicaprate (Myritol ® PC).
Where [9] appears, read: in Propylene glycol monolaurate (Lauroglycol ® FCC).

Regarding `CC(C)(C)c1cc(-c2cc(-c3ccc(C(=O)O)cc3)ccc2OCCO)ccc1N1CCCC1` [Trifarotene, 3″-tert-butyl-4′-(2-hydroxyethoxy)-4″-pyrrolidin-1-yl-[1,1′;3′,1″]-terphenyl-4-carboxylic acid], the Maximum solubility in series [1] (in Alkyl (C12-15) benzoate (Crodamol AB)) came out at 0.026 % w/w; in series [1] (setting [3]), 0.019 % w/w; in series [1] (setting [4]), 0.297 % w/w; in series [1] (setting [5]) it was 0.156 % w/w; in series [1] (in Mineral oil), 0.0001 % w/w; in series [1] (setting [6]) it was 0.137 % w/w. For the same compound, the Maximum solubility was 0.292 % w/w in series [1] (setting [7]); 0.069 % w/w in series [1] (setting [8]); 0.802 % w/w in series [1] (in Propylene glycol monocaprylate (Capryol ® 90)); 0.296 % w/w in series [1] (setting [9]); 0.011 % w/w in series [1] (in Sweet almond oil). Moreover, the Stability in series [2] (setting [3]) was 6 months AT/40 °C; in series [2] (setting [4]) it was 6 months AT/40 °C; in series [2] (setting [5]), 6 months AT/40 °C; in series [2] (setting [6]), “Unstable”; in series [2] (setting [7]), 6 months AT/40 °C; in series [2] (setting [8]), “Unstable”. Besides, the Stability is 6 months AT/40 °C in series [2] (in Propylene glycol monocaprylate (Capryol ® 90), AT = ambient temperature); 6 months AT/40 °C in series [2] (setting [9]); 6 months AT/40 °C in series [2] (in Sweet almond oil).
